Test results reported in PubChem BioAssay AID2060886 (Molecular Pharmacology Branch, DTP, NCI, 2025).
Each block holds one molecule with its values, some of them ahead of it.

System: 653999-131-R-J2-PDC complex spheroids, growth inhibition
Assay: Anticancer human tumor 653999-131-R-J2-PDC patient-derived lung adenocarcinoma cell line growth inhibition [RAS]
Settings: for IC50: curve of first compound; for viability, T/C: stronger effect = lower value
Outline: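 Multi-cell-type spheroids: tumor cells plus HUVEC endothelial cells and mesenchymal stem cells. RAS-pathway inhibitors were combined with targeted agents, each dosed in half-log steps down from clinical Cmax, or from 10 microM when Cmax was unknown.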

[1] = second compound 0.000949 µM, first compound 0.0316 µM
[2] = second compound 0.000949 µM, first compound 0.1 µM
[3] = second compound 0.000949 µM, first compound 0.316 µM
[4] = second compound 0.000949 µM, first compound 1 µM
[5] = second compound 0.003 µM, first compound 0.0316 µM
[6] = second compound 0.003 µM, first compound 0.1 µM
[7] = second compound 0.003 µM, first compound 0.316 µM
[8] = second compound 0.003 µM, first compound 1 µM
[9] = second compound 0.00949 µM, first compound 0.0316 µM
[10] = second compound 0.00949 µM, first compound 0.1 µM
[11] = second compound 0.00949 µM, first compound 0.316 µM
[12] = second compound 0.00949 µM, first compound 1 µM
[13] = second compound 0.03 µM, first compound 0.0316 µM
[14] = second compound 0.03 µM, first compound 0.1 µM
[15] = second compound 0.03 µM, first compound 0.316 µM
[16] = second compound 0.03 µM, first compound 1 µM
[17] = second compound 0.0949 µM, first compound 0.0316 µM
[18] = second compound 0.0949 µM, first compound 0.1 µM
[19] = second compound 0.0949 µM, first compound 0.316 µM
[20] = second compound 0.0949 µM, first compound 1 µM
[21] = second compound 0.3 µM, first compound 0.0316 µM
[22] = second compound 0.3 µM, first compound 0.1 µM
[23] = second compound 0.3 µM, first compound 0.316 µM
[24] = second compound 0.3 µM, first compound 1 µM
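Note: spheroids exposed to the agents for seven days before the readout.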

IC50 (second compound 0.000949 µM): 816 nM
IC50 (second compound 0.003 µM): 106 nM
IC50 (second compound 0.00949 µM): < 3.16 nM
IC50 (second compound 0.03 µM): < 3.16 nM
IC50 (second compound 0.0949 µM): < 3.16 nM
IC50 (second compound 0.3 µM): < 3.16 nM
SMILES: C=CC(=O)Nc1cc(Nc2nccc(-c3cn(C)c4ccccc34)n2)c(OC)cc1N(C)CCN(C)C + CCn1c(-c2cc(N3CCN(C)CC3)cnc2C(C)OC)c2c3cc(ccc31)-c1csc(n1)CC(NC(=O)C1CC1C)C(=O)N1CCCC(N1)C(=O)OCC(C)(C)C2
viability, T/C (second compound 0.000949 µM, first compound 0.00316 µM): 88.7%
viability, T/C (second compound 0.000949 µM, first compound 0.01 µM): 75.9%
viability, T/C [1]: 56.2%
viability, T/C [2]: 76%
viability, T/C [3]: 56.7%
viability, T/C [4]: 44.5%
viability, T/C (second compound 0.003 µM, first compound 0.00316 µM): 80.6%
viability, T/C (second compound 0.003 µM, first compound 0.01 µM): 63.7%
viability, T/C [5]: 59%
viability, T/C [6]: 52.9%
viability, T/C [7]: 43.1%
viability, T/C [8]: 37.2%
viability, T/C (second compound 0.00949 µM, first compound 0.00316 µM): 47.3%
viability, T/C (second compound 0.00949 µM, first compound 0.01 µM): 39.5%
viability, T/C [9]: 36.7%
viability, T/C [10]: 38%
viability, T/C [11]: 31.6%
viability, T/C [12]: 23.2%
viability, T/C (second compound 0.03 µM, first compound 0.00316 µM): 36.4%
viability, T/C (second compound 0.03 µM, first compound 0.01 µM): 29.9%
viability, T/C [13]: 28%
viability, T/C [14]: 37.2%
viability, T/C [15]: 28.8%
viability, T/C [16]: 16.2%
viability, T/C (second compound 0.0949 µM, first compound 0.00316 µM): 25.3%
viability, T/C (second compound 0.0949 µM, first compound 0.01 µM): 25.1%
viability, T/C [17]: 20.9%
viability, T/C [18]: 16.8%
viability, T/C [19]: 18.6%
viability, T/C [20]: 12.7%
viability, T/C (second compound 0.3 µM, first compound 0.00316 µM): 18.2%
viability, T/C (second compound 0.3 µM, first compound 0.01 µM): 26.2%
viability, T/C [21]: 22.1%
viability, T/C [22]: 22.1%
viability, T/C [23]: 16.6%
viability, T/C [24]: 11.2%

IC50 (second compound 0.000949 µM): 649 nM
IC50 (second compound 0.003 µM): 190 nM
IC50 (second compound 0.00949 µM): < 31.6 nM
IC50 (second compound 0.03 µM): < 31.6 nM
IC50 (second compound 0.0949 µM): < 31.6 nM
IC50 (second compound 0.3 µM): < 31.6 nM
SMILES: CC(C)NCC(C(=O)N1CCN(c2ncnc3c2C(C)CC3O)CC1)c1ccc(Cl)cc1 (centres undefined) + CCn1c(-c2cc(N3CCN(C)CC3)cnc2C(C)OC)c2c3cc(ccc31)-c1csc(n1)CC(NC(=O)C1CC1C)C(=O)N1CCCC(N1)C(=O)OCC(C)(C)C2
viability, T/C [1]: 79.2%
viability, T/C [2]: 89.7%
viability, T/C [3]: 61.1%
viability, T/C [4]: 43.9%
viability, T/C (second compound 0.000949 µM, first compound 3.16 µM): 26.6%
viability, T/C (second compound 0.000949 µM, first compound 10 µM): 26.9%
viability, T/C [5]: 72.5%
viability, T/C [6]: 52.9%
viability, T/C [7]: 50.8%
viability, T/C [8]: 29.6%
viability, T/C (second compound 0.003 µM, first compound 3.16 µM): 26.6%
viability, T/C (second compound 0.003 µM, first compound 10 µM): 20.4%
viability, T/C [9]: 49.7%
viability, T/C [10]: 39.6%
viability, T/C [11]: 38.4%
viability, T/C [12]: 28.8%
viability, T/C (second compound 0.00949 µM, first compound 3.16 µM): 16.4%
viability, T/C (second compound 0.00949 µM, first compound 10 µM): 14.4%
viability, T/C [13]: 34.2%
viability, T/C [14]: 36.5%
viability, T/C [15]: 23.9%
viability, T/C [16]: 18.6%
viability, T/C (second compound 0.03 µM, first compound 3.16 µM): 10.3%
viability, T/C (second compound 0.03 µM, first compound 10 µM): 9.69%
viability, T/C [17]: 27.3%
viability, T/C [18]: 23.8%
viability, T/C [19]: 18.5%
viability, T/C [20]: 13.7%
viability, T/C (second compound 0.0949 µM, first compound 3.16 µM): 9.85%
viability, T/C (second compound 0.0949 µM, first compound 10 µM): 5.97%
viability, T/C [21]: 24%
viability, T/C [22]: 20.4%
viability, T/C [23]: 20.9%
viability, T/C [24]: 14.7%
viability, T/C (second compound 0.3 µM, first compound 3.16 µM): 8.46%
viability, T/C (second compound 0.3 µM, first compound 10 µM): 5.88%
